# Measured values as given in patent US20210283110A1, “COMPOUND FOR USE IN THE TREATMENT OF A DISEASE CHARACTERIZED BY DYSREGULATED MUCUS PRODUCTION AND/OR SECRETION” (UNIVERSITÄT REGENSBURG, priority 2018, published 2021).
# Entries after “also recorded” stand apart in the source; their conditions may differ.
# Legend:
# [1] = tested on: airways of OVA-sensitized mice; assay: OVA-induced allergic airway inflammation in mice (alcian blue mucus staining, airway cross section, CD45 infiltration); type: in vivo, mouse
# Description: Intestinal sections were collected for histological analyses. Mouse airways were fixed by transcardial fixation and were embedded in paraffin or were used as cryosections. For paraffin sections, tissues were fixed in 4% paraformaldehyde (PFA), 0.2% picric acid and 3.4% sucrose in PBS, and were washed in methanol before embedding in paraffin. Sections were stained according to standard Periodic acid-Schiff (PAS) or Alcian Blue methods and assessed by light microscopy.
# Mouse models were performed according to the previous example. For investigating mucus, IL-8 release, and leukocytes, tissues were fixed using 4% paraformaldehyde (PFA), 0.2% picric acid and 3.4% sucrose in PBS and washed in methanol before embedding in paraffin. Mucus was analyzed using standard Periodic acid-Schiff (PAS) or alcian blue staining. MUC5AC was stained using anti-MUC5AC mouse antibody (1:200, Abcam, ab3649) and a secondary antibody conjugated with Alexa488 (Life Technologies, A-21206). Nuclei were stained with Hoe33342 (0.1 μg/ml PBS, Aplichem, Darmstadt, Germany). Quantikine ELISA kits (R&D systems) were used to measure secretion of the cytokine IL-8 by Calu3 cells.
# All methods were performed as described in the previous examples. Mice were treated with ovalbumin (OVA) to induce an allergic reaction which leads to airway inflammation. […] After allergization with OVA and development of airway inflammation, excessive mucus production and inflammatory infiltration with immune cells is observed. Activation of cholinergic receptors using the muscarinic agonist carbachol (CCH) results in constriction of the airways and secretion of mucus (FIG. 5A-C). 3-day treatment using niclosamide reduced the CCH-induced constriction of the airways (FIG. 1). Furthermore, mucus secretion and inflammatory infiltrates were reduced.
# OVA-induced allergic airway inflammation in mice caused pronounced airway goblet cell metaplasia. […] NFA is a well know inhibitor of Ca^2+ activated Cl^− channels and inhibits TMEM16A. The two main TMEM16 paralogs expressed in airway epithelial and smooth muscle cells, TMEM16A and TMEM16F, were expressed in HEK293 cells and the whole cell currents upon activation by the Ca^2+ ionophore ionomycin (Iono) were measured. […] Novel therapeutic strategies for the treatment of inflammatory airway diseases such as CF may therefore consider the use of inhibitors of TMEM16.
# The present inventors disclose that airway epithelial knockout of TMEM16A causes a defect in basal, i.e. ATP-mediated mucus secretion. […] Mucus synthesis under inflammatory (OVA) conditions and mucus release upon cholinergic stimulation, however, were not compromised (FIG. 16C). […] Because basal mucus production still occurs in the absence of TMEM16A, other TMEM16 paralogs may also be in charge of mucus synthesis.
# endogenous TMEM16A = assay: Iodide quenching of YFP in HT29 cells stimulated with ionomycin; type: cell-based
# Description: FIG. 15: Inhibition of TMEM16A and TMEM16F by niclosamide. • A) TMEM16A whole cell currents in overexpressing HEK293 cells. […] Rate of YFP quenching (arbitrary units (au/second), when applying 20 mM iodide to the extracellular bath solution. HT29 cells stably overexpressing YFP were stimulated with […] ionomycin. 100,000 cells were seeded/well. Mean±SEM; (number of experiments) #significant inhibition when compared to the absence of the inhibitor (p<0.05; unpaired t-test); *significant activation by UTP (paired t-test).
# Similar to TMEM16A, also overexpressed TMEM16F was inhibited by niclosamide (FIG. 15D). The effect of niclosamide was also examined on endogenous TMEM16A expressed in HT29 colonic carcinoma cells, which were stably transfected with iodide-sensitive yellow fluorescent protein (YFP). TMEM16A was activated by ionomycin and TMEM16A currents were measured as iodide quenching.
# TMEM16A or TMEM16F = assay: Expression of TMEM16A / TMEM16F after niclosamide; type: cell-based
# TMEM16A = molecular target: T1, TMEM16A (Homo sapiens, UniProt Q5XXA6); assay: Whole cell currents in HEK293 cells expressing TMEM16A (patch clamp); type: cell-based; parameters: expressed in transfected cells; host or cells: HEK293 cells; settings: overexpressing HEK293 cells; UTP 100 μM
# T1 sequence (Q5XXA6 1-986): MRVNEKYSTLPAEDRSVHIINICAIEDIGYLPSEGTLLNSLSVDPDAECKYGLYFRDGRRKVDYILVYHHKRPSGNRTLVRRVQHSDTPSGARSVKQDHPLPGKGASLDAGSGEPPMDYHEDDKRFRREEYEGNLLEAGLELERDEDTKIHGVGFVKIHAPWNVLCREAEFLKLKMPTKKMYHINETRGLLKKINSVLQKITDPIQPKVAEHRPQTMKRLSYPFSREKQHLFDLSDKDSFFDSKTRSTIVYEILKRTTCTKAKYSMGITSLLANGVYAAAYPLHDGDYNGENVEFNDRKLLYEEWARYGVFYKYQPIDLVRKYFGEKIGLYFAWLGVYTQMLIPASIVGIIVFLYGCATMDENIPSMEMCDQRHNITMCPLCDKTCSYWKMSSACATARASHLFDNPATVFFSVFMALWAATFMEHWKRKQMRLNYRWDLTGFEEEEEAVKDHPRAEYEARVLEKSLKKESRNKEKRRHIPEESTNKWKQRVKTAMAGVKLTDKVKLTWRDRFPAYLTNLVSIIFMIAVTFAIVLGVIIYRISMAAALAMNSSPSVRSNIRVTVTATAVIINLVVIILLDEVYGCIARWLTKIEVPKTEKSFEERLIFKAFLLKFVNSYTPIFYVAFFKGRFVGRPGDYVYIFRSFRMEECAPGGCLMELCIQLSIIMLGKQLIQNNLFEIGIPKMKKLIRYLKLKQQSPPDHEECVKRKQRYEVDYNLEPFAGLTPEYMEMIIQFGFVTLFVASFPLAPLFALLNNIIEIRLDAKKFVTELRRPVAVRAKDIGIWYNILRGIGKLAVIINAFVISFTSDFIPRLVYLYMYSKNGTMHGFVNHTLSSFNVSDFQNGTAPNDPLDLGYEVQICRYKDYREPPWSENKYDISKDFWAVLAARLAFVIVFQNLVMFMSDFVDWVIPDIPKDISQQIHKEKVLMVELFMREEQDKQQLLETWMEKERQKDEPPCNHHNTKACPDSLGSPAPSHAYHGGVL
# Description: FIG. 14: The TMEM16-inhibitor niflumic acid attenuates inflammatory airway disease. • A,B) OVA-sensitization induced pronounced goblet cell metaplasia as indicated by alcian blue positivity. Exposure to carbachol (CCH, 25 mg/ml, nebulizer) induced release of mucus and airway […]. Bars indicate […]. […] Mean±SEM; *significant inhibition by NFA (paired ttest). # significant difference when compared to OVA (unpaired t-test). (n) number of airways analysed or number of cells examined.
# FIG. 15: Inhibition of TMEM16A and TMEM16F by niclosamide. • A) TMEM16A whole cell currents in overexpressing HEK293 cells. […]
# OVA-induced allergic airway inflammation in mice caused pronounced airway goblet cell metaplasia. […] The two main TMEM16 paralogs expressed in airway epithelial and smooth muscle cells, TMEM16A and TMEM16F, were expressed in HEK293 cells and the whole cell currents upon activation by the Ca^2+ ionophore ionomycin (Iono) were measured. […]
# Similar to TMEM16A, also overexpressed TMEM16F was inhibited by niclosamide (FIG. 15D). […] TMEM16A was activated by ionomycin and TMEM16A currents were measured as iodide quenching.
smiles,measurement,setting,value
"O=C(Nc1ccc([N+](=O)[O-])cc1Cl)c1cc(Cl)ccc1O [niclosamide, 5-chloro-N-(2-chloro-4-nitrophenyl)-2-hydroxybenzamide]",inflammatory infiltrates,"[1]; OVA-allergized mice, 3-day treatment",reduced
same,mucus secretion,"[1]; OVA-allergized mice, 3-day treatment, CCH",reduced
same,CCH-induced constriction of the airways,"[1]; OVA-allergized mice, 3-day treatment, carbachol (CCH)",reduces
same,CCH-induced airway contraction,"[1]; OVA-sensitized TMEM16A+/+ and TMEM16A−/− mice, intratracheal for three days before CCH",strongly attenuated
same,mucus synthesis / production,"[1]; OVA-sensitized wt (TMEM16A+/+) and TMEM16A−/− mice, intratracheal for three days before CCH",strongly reduced; also recorded: strongly attenuated
same,OVA-induced mucus production,"[1]; wt mice, tracheal instillation, niflumic acid 20 μM or niclosamide 5 μM",strongly reduced; also recorded: inhibited mucus production
same,potency compared with CaCCinhAO1 or dichlorophen,endogenous TMEM16A; HT29 YFP iodide quenching,more potent
same,inhibition of endogenous TMEM16A (iodide quenching of YFP),"endogenous TMEM16A; HT29 cells stably expressing YFP, ionomycin, 20 mM iodide",low nanomolar range
same,expression of either TMEM16A or TMEM16F,TMEM16A or TMEM16F,did not change
same,TMEM16A outward currents activated by purinergic stimulation,TMEM16A,inhibitory effect; also recorded: Concentration-dependent inhibition
